In assay [1] the test system is Psuedo. aeruginosa KY 8516. As to the kind of experiment: In vitro antimicrobial activity, 2-fold agar dilution. It counts as cell-based. The method, then: (§1) 21, 1977. The in vitro activity of 2-deoxyfortimicin As set forth in Table I. The in vitro activity of 2-deoxyfortiicin A tetrahydrochloride, fortimicin A disulfate and fortimicin A tetrahydrochloride were determined using a 2-fold agar dilution method using 10 ml per petri plate of Mueller-Hinton agar. The agar was inoculated with one loopful (0.001 ml/loop) of a 1:10 dilution of a 24 hour broth culture of the indicated test organism and incubated at 37° C. for 24 hours.
(In general: In agar dilution, organisms are placed on agar that contains the substance at set levels.)

Another assay deals with E coli 76-2. The assay is described as above. It counts as cell-based. The conditions noted are these: Mueller-Hinton agar, 37° C., 24 hours. As to the method:
as §1

Counter-ions that a name gives are not always drawn. Like-named read-outs stand apart in the source and are kept apart here.

As to `COC1C(O)C(N)C(OC2OC(C(C)N)CCC2N)C(O)C1N(C)C(=O)CN` (centres unmarked) [Fortimicin A tetrahydrochloride, fortimicin A tetrahydrochloride], the Minimum inhibitory concentration in assay [1] (Psuedo. aeruginosa KY 8516, Mueller-Hinton agar, 37° C., 24 hours) stood at 100 µg/mL; with E coli 76-2, 3.1 µg/mL.
With `COC1CC(N)C(OC2OC(C(C)N)CCC2N)C(O)C1N(C)C(=O)CN` (centres unmarked) [2-deoxyfortimicin A tetrahydrochloride], the MIC turned out to be 50 µg/mL in assay [1] (Psuedo. aeruginosa KY 8516, Mueller-Hinton agar, 37° C., 24 hours, read-out: Minimum inhibitory concentration) and 3.1 µg/mL in the assay on E coli 76-2 (read-out: Minimum inhibitory concentration).
As to `COC1C(O)C(N)C(OC2OC(C(C)N)CCC2N)C(O)C1N(C)C(=O)CN` (centres unmarked) [Fortimicin A disulfate, fortimicin A disulfate], the MIC in assay [1] (24 h, read-out: Minimum inhibitory concentration, Psuedo. aeruginosa KY 8516, Mueller-Hinton agar, 37° C.) is 50 µg/mL.
